Assay results as given in paper PMC6017325, “Cell Penetrating Capacity and Internalization Mechanisms Used by the Synthetic Peptide CIGB-552 and Its Relationship with Tumor Cell Line Sensitivity” (Molecules : A Journal of Synthetic Chemistry and Natural …, 2018).

How the values were obtained:
MCF-7 [1] = test: Internalization assay, flow cytometry, MCF-7; assay type: cell-based, human; conditions: FITC-conjugated CIGB-552 5 and 50 μM, 1 h
Protocol: (§1) Cells were seeded in 12-well plates (1 × 10^5 cells/well) and cultured in either D-MEM or RPMI supplemented with Glutamax, 10% (v/v) FBS, at 37 °C for 24 h. For those samples where internalization was analyzed by microscopy, round coverslips were placed into the wells prior to cell seeding. Subsequently, FITC-conjugated CIGB-552, was added to the cells to a final concentration of 5 μM or 50 μM and was incubated for 1 h at either 4 °C or 37 °C. For flow cytometry readout, culture medium was removed, cells were washed using phosphate-buffered saline (PBS) and surface-bound FITC-peptide was quenched with 0.4% (w/v) Trypan Blue solution. Cells were trypsinized and samples were acquired using Cyan ADP Flow Cytometer equipped with a 488 nm laser and a FL1 emission filter (530/40 nm). For data acquisition and analysis Summit v4.3 (Beckman Coulter, Fullerton, CA, USA) and FlowJo v.7.6.5 software (BD, Ashland, OR, USA) were used. For microscopy assays, cells were fixed in 4% (w/v) paraformaldehyde (PFA) for 15min, permeabilized using 0.2% (v/v) Tween 20 solution in PBS, and nuclei were stained using TOPRO-3 (1 μM, Life Technologies) and CellMask^TM membrane marker (1:2000, Life Technologies).
(§2) Data was expressed as the mean ± Standard Deviation of triplicates of one representative experiment, three independent experiments were executed. […]

H460 [2] = test: Internalization assay, flow cytometry, H460; assay type: cell-based, human; conditions: FITC-conjugated CIGB-552 5 and 50 μM, 1 h
Protocol: as §1
Data was expressed as the mean ± Standard Deviation of triplicates of one representative experiment, three independent experiments were executed. Statistic calculations were performed using Statistica software (STATSOFT, Hamburg, Germany). Differences were considered statistically significant when p < 0.05 using Mann-Whitney U Test.

HT-29 [3] = conditions: HT-29 cell line; read-out: cytotoxicity, IC50 value; cited from earlier work
From the text: Table 1 CIGB-552 cytotoxicity in H460, HT-29 and MCF-7 cell lines (expressed by the IC50 value in μM); D-amino acids are indicated in small and italic characters. | column: HT-29

H460 [4] = conditions: H460 cell line; read-out: cytotoxicity, IC50 value; cited from earlier work
From the text: Table 1 CIGB-552 cytotoxicity in H460, HT-29 and MCF-7 cell lines (expressed by the IC50 value in μM); D-amino acids are indicated in small and italic characters. | column: H460

MCF-7 [5] = conditions: MCF-7 cell line; read-out: cytotoxicity, IC50 value; cited from earlier work
From the text: Table 1 CIGB-552 cytotoxicity in H460, HT-29 and MCF-7 cell lines (expressed by the IC50 value in μM); D-amino acids are indicated in small and italic characters. | column: MCF-7

HT-29 [6] = test: Internalization assay, flow cytometry, HT-29; assay type: cell-based, human; conditions: FITC-conjugated CIGB-552 5 and 50 μM, 1 h
Protocol: as §1, §2

COMMD1 protein = target: T1, COMMD1 protein (Homo sapiens, UniProt Q8N668); test: Protein complementation assay (PCA), Venus; assay type: cell-based; conditions: MCF-7 and H460 cells co-transfected with Venus 1 / Venus 2 plasmids containing COMMD1 or L2; confocal microscopy
T1 construct: Venus fragment (Venus 1 or Venus 2); expressed in transfected cells; host or cells: MCF-7 and H460 cells, co-transfected with pCDNA3.1 Venus 1 / Venus 2 plasmids using Lipofectamine 2000
T1 sequence (Q8N668 whole entry, the tested form may be a part): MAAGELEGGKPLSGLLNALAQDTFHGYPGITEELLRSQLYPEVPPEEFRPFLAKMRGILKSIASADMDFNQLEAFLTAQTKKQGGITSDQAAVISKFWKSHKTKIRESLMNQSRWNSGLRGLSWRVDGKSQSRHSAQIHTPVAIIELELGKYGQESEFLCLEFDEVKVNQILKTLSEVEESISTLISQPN
Protocol: L2 peptide, which was chemically modified in its primary structure to generate the CIGB-552, was used for the protein complementation assay. Cells were seeded in 12-well plates containing round coverslips (1 × 10^5 cells/well) and cultured in either DMEM or RPMI supplemented with Glutamax, 10% (v/v) FBS, at 37 °C for 24 h. Cells were co-transfected with the plasmids pCDNA3.1 Venus 1 and pCDNA3.1 Venus 2 each one containing either COMMD1 protein or L2 peptide. Transfection was performed with Lipofectamine 2000 (Thermo Fisher, Waltham, MA, USA) using a ratio of 1:2 DNA:lipofectamine ([…]). […]
All images were taken using laser confocal microscope Leica TCS SP5 equipped with a 63X NA 1.42 oil immersion objective (Leica Microsystems, Wetzlar, Germany). […] Quantification of the number of fully loaded cells was performed using 10 single optical sections for each cell line by using the Manual Counting plugin provided in Icy 1.9.5.1v imaging software. In order to assess fluorescence intensity both in cytoplasm and nuclei, images were taken in identical conditions (laser power, photomultiplier voltage, line and frame average and zoom) for all cell lines and 10 single optical sections were used for the analysis. […]

[7] = MFI at 4 °C referred to MFI at 37 °C

| in situ interaction with COMMD1 (fluorescence emission of Venus protein) (COMMD1 protein) | Substance | temperature effect on internalization (MCF-7 [1]; 4 °C versus 37 °C) | contribution of the transduction mechanism to internalization (MCF-7 [1]; [7]) | temperature effect on internalization (H460 [2]; 4 °C versus 37 °C) | internalization levels (median fluorescent intensity, MFI) (H460 [2]; 37 °C, surface-bound peptide quenched with 0.4% Trypan Blue) | contribution of the transduction mechanism to internalization (H460 [2]; [7]) | IC50 (HT-29 [3]) [µM] | IC50 (H460 [4]) [µM] | IC50 (MCF-7 [5]) [µM] | temperature effect on internalization (HT-29 [6]; 4 °C versus 37 °C) | contribution of the transduction mechanism to internalization (HT-29 [6]; [7]) |
| --- | --- | --- | --- | --- | --- | --- | --- | --- | --- | --- | --- |
| – | Ac-HARIKpTFRRlKWKYKGKFW [CIGB-552, twenty-amino-acid novel synthetic peptide, AMP-derived, cell penetrating, pro-apoptotic through COMMD1] | reduction in the internalization | more than 50% | higher reduction in internalization levels | highest internalization levels | less than 50% | 166 ± 66 | 23 ± 8 | 338 ± 39 | higher reduction in internalization levels | less than 50% |
| likely to interact | HARIKPTFRRLKWKYKGKFW [L2] | – | – | – | – | – | – | – | – | – | – |
